Key:
[1] = Solubility of calcifediol monohydrate; format: physicochemical
Source text: In one embodiment, calcifediol is synthetically manufactured as calcifediol monohydrate. […] Chemically, calcifediol monohydrate is (3β,5Z,7E)-9,10-secocholesta-5,7,10(19)-triene-3,25-diol monohydrate and its structural formula is: […]

plasma proteins = assay: Plasma protein binding of calcifediol; format: in vitro ADME; conditions: human, read-out: bound to plasma proteins
Experimental: The pharmacokinetics of […] were assessed in healthy subjects and subjects with CKD Stage 3 or Stage 4. […] Steady-state levels of serum total 25-hydroxyvitamin D were reached after approximately 3 months. Following multiple dose administration of […], the average steady state concentrations of serum total 25-hydroxyvitamin D were 53 ng/mL and 68 ng/mL for doses of 30 mcg and 60 mcg dose group, respectively. With respect to distribution, calcifediol is extensively bound to plasma proteins (>98%). The mean apparent volume of distribution was 8.8 L in healthy subjects following a single oral dose of […], and 30.1 L in subjects with Stage 3 or Stage 4 chronic kidney disease following repeated dosing. With respect to elimination, the mean elimination half-life of calcifediol was approximately 11 days in healthy individuals following a single dose of […], and approximately 25 days in patients with Stage 3 or Stage 4 chronic kidney disease following repeated once daily dosing. With respect to metabolism, production of calcitriol from calcifediol is catalyzed by the 1α-hydroxylase enzyme, CYP27B1, located in the kidney, parathyroid gland, and other tissues. […] Calcitriol suppresses CYP27B1 and upregulates CYP24A1. Excretion of calcifediol occurs primarily through the biliary fecal route. […]

solubility in alcohol and fatty oils [1] | solubility in water [1] | fraction unbound (plasma proteins) | Compound
soluble | practically insoluble |  | C=C1CC[C@H](O)C/C1=C/C=C1\CCC[C@]2(C)[C@@H]([C@H](C)CCCC(C)(C)O)CC[C@@H]12 [Calcifediol monohydrate, (3β,5Z,7E)-9,10-secocholesta-5,7,10(19)-triene-3,25-diol monohydrate]
 |  | < 0.02 | C=C1CC[C@H](O)C/C1=C/C=C1\CCC[C@]2(C)[C@@H]([C@H](C)CCCC(C)(C)O)CC[C@@H]12 [calcifediol, 25-hydroxyvitamin D3]

From US12208106B2, “Methods of vitamin D treatment” (priority 2016, dated 2025)
